Data set [1] deals with masculinizing activity. The note with it: low blood concentrations; cited from earlier work.
Data set [2] concerns bone. To be noted: in vivo; cited from earlier work.
For data set [3], the system named is antibody 144A. The data set can be described thus: MPA radioimmunoassay, specificity of antibody 144A. It counts as binding, rabbit. The text has this: Antibody 144A was raised in rabbits against 17-hydroxyprogesterone-3-0-carboxymethyloxime-BSA. The labeled steroid used in the radioimmunoassay (RIA) was methyl-17α-hydroxyprogesterone acetate, 6α-[1,2-^3 H(N)]- obtained from NEN (CAT NO: NET 480) while the reference preparation was medroxyprogesterone acetate (MPA) obtained from Steraloids. The assay buffer used was 0.1% gelatin in 0.1M sodium phosphate, 0.15M sodium chloride, 0.1% sodium azide, pH 7.2. The extraction solvent mixture was ethyl ether-acetone (9:1, v:v) [EEA] while the LH-20 chromatography solvent mixture was iso-octane: toluene: methanol (90:5:5;v:v:v) [IOTH].
One ml of plasma was extracted twice with 5 ml of EEA. The extracts were evaporated to dryness with nitrogen and the remaining residue was dissolved in one ml of IOTH. The extracts were then subjected to LH-20 chromatography on […] columns (Coming CAT NO: 05 722A) filled with 2 g of LH-20 (Pharmacia). The gel was washed with 30 ml of IOTH before addition of one ml of sample and elution with IOTH. The first 6 ml were discarded. The following 10, 16.5 and 27.5 ml of eluent were fraction I (progesterone), II (MPA) and III (17-LH-progesterone), respectively. Fraction II was evaporated to dryness and reconstituted in 1.5 ml of assay buffer.
To each 12 x 75 mm borosilicate test tube was added: 0.2 ml containing 25,000 DPM of tritiated steroid, 0.5 ml of reference preparation ranging from 5 to 5000 pg/tube or 0.5 ml of extracted sample fraction II, 0.2 ml of antiserum 144A diluted 1/5000 or 0.2 ml of assay buffer to account for non specific binding. The tubes were then incubated overnight at 4° C. Then, 0.2 ml 2% charcoal Norit-A, 0.2% Dextran T-70 diluted in water was added. The tubes were then shaken gently and, after 10 min, they were centrifuged at 2000 x g for 10 min. The supernatant was mixed with 8 ml of Formula-989 (NEN: NEF-989) and the radioactivity was counted in a β-counter.

Data set [4] deals with bone. To be noted: cited from earlier work.
For data set [5], the system named is hypocalcemic effect of calcitonin. To be noted: castrated rats; cited from earlier work.
The subject of data set [6] is bone resorption. To be noted: in vivo; cited from earlier work.
In data set [7] the test system is bone. To be noted: in vivo; cited from earlier work. The source holds these as a separate data set.
The test system of data set [8] is pituitary AR. The note with it: rat, in vivo; cited from earlier work.
In data set [9] the test system is endometrial cancer. To be noted: high dose; cited from earlier work.
Data set [10] relates to ventral prostate. To be noted: rat, in vivo; cited from earlier work.
The nature of data set [11]: Stability to gamma sterilization (SEC, viscosity). It counts as physicochemical. To be noted: 2.2 Megarads. An excerpt: FIGS. 10A and 10B show, in (A), "the variation of the different parameters" [M(n-1), Mn, Mw, Mz,M(z+1)] characteristics of the molecular mass of 50:50 poly[DL-lactide-co-glycolide] following exposure to the indicated levels of gamma irradiation (Mrad); and, in (B), the variation of the polydensity (Mw/Mn) versus the level of gamma irradiation (Mrad).
Before injection, the microspheres were sterilized by exposure to 2.2 Megarads of gamma radiation achieved with a Cobalt-60 source (Gammacell 200). The stability of MPA was checked by steric exclusion chromatography (SEC) while the stability of the polymer was analyzed by SEC using polystyrene standards for calibration and by the modification of the relative viscosity using a Ubbelohde capillary viscometer.
Samples of batch MPA-MB-V have been exposed to different amounts of gamma radiation (0,1.1, 2.2 Megarads) and the molecular mass distribution parameters [M(n-1), Mn, Mw, Mz, M(z+1)] (see FIG. 10A) as well as their polydispersity (Mw/Mn) (FIG. 10B) were measured.

Data set [12] has as its system estrogen binding in the endometrium. To be noted: oral, follicular phase; cited from earlier work.
Data set [13] has as its system endometriosis. The note with it: high dose, 6 months, cited from earlier work.
Data set [14] concerns kidney. The note with it: mouse, in vivo; cited from earlier work.
The conditions of data set [15]: cited from earlier work.
The subject of data set [16] is breast cancer. The note with it: high doses, unselected breast cancer patients; cited from earlier work.
For data set [17], the system named is pituitary AR. To be noted: in vivo; cited from earlier work.
Data set [18] deals with ZR-75-1 human breast cancer cells. The note with it: cited from earlier work.

In brackets after ≈: the same amount, converted by molar mass. Read-outs that look alike come from different tables or passages of the source.

`C[C@]12CC[C@H]3[C@@H](CCC4=CC(=O)CC[C@@]43C)[C@@H]1CC[C@@H]2O` [testosterone]: the masculinizing activity result in [1] is on record as “considerable masculinizing activity even at low blood concentrations”. Also, in data set [2], the “overall quantity of bone” value was “increases the overall quantity of bone”. For the same molecule, the “cross-reactivity with antibody 144A” value in data set [3] is “less than 0.1%”. Also, in data set [4] (hypogonadal males), the bone histomorphometry entry is “increases in relative osteoid volume, total osteoid surface, linear extend of bone formation and bone mineralization”. Besides, in [4] (in vivo), the “nitrogen, calcium and phosphate balance” value is “positive nitrogen, calcium and phosphate balance”; the “osteoid surfaces and beam width” value is “increase osteoid surfaces and beam width”. The bone formation entry in [4] (men with primary hypogonadism) was “increases bone formation”. Besides, the “hypocalcemic effect of calcitonin” value in data set [5] is “increases the hypocalcemic effect of calcitonin”.

On to `CCCCCCCCCC(=O)O[C@H]1CC[C@H]2[C@@H]3CCC4=CC(=O)CC[C@@H]4[C@H]3CC[C@]12C` [nandrolone decanoate], for which the bone resorption result in data set [6] was “reduced bone resorption”. Besides, in data set [7], the bone mass entry is “increased bone mass” and the “bone resorption, osteoporotic women” value is given as “reduced bone resorption”.

On to `CC(=O)O[C@]1(C(C)=O)CC[C@H]2[C@@H]3C[C@H](C)C4=CC(=O)CC[C@]4(C)[C@H]3CC[C@@]21C` [MPA, 6-alpha-methyl,17-alpha-acetoxy progesterone], for which, in [8], the “effect on gonadotropin secretion” value is reported as “inhibitory effect”. Moreover, in [9], the “treatment of endometrial cancer” value is “successfully used” and the “treatment of endometrial carcinoma compared with Tamoxifen” value was “success similar to that of Tamoxifen”. Besides, in data set [10], the androgenic activity entry is reported as “exhibits androgenic activity”. Moreover, in data set [11], the “stability to gamma radiation” value is recorded as “does not damage MPA”. Also, in [12], the “level of estrogen binding in the endometrium” value is “decrease in the level of estrogen binding”. Also, in data set [13] (placebo 6%), the partial resolution is listed as 13 % of subjects. The “resolution of the disease” value in data set [13] (placebo 12%) is 50 % of the patients. For the same molecule, the “ED50 value (RIA)” value in data set [3] (MPA radioimmunoassay) stood at 0.315 ng/mL (≈ 0.815 nM). For the same molecule, in data set [14], the androgenic activity entry is on record as “exhibits androgenic activity”. Further, the virilizing symptoms result in data set [15] (acne, hirsutism) is given as “seldom causes significant virilizing symptoms”. In data set [15] (human, in vivo), the adrenal function entry is “Suppression of adrenal function”; the glucocorticoid-like side effects entry is “Cushingoid syndrome, euphoria and subjective pain relief”. The “overall clinical response rate” value in data set [16] is 40%. Further, in [17], the “effect on gonadotropin secretion” value is recorded as “inhibitory effect”. Further, in [18], the “concentration of maximal inhibitory action on human breast cancer cell growth” value is given as 1 nM, the “dose required for glucocorticoid action relative to maximal growth inhibition” value is “approximately 1000 fold” and the “mechanism of growth inhibition of ZR-75-1 cells” value was “mainly due to the androgenic properties of the compound”.

The values above are taken from patent US5861387A, “Controlled release systems and low dose androgens” (Endorecherche Inc., priority 1995, dated 1999).
